Patent publication US20250340519A1, “RADIOLABELLED COMPOUND” (OXFORD UNIVERSITY INNOVATION LIMITED, priority 2018, published 2025)

What was measured:
U87MG and U251MG cells = assay: Blocking of 18F-olaparib uptake in U87MG and U251MG cells; assay type: cell-based; details: 100 μM cold olaparib vs 1 μM ^18F-olaparib
Description: Olaparib (1) was used at various concentrations to block 1 μM of the radiolabelled isotopologue, ^18F-olparib (compound 3); see FIG. 26.

PANC-1 cells = assay: Cell uptake of [18F]olaparib in PANC-1 cells; assay type: cell-based, human; details: excess of unlabelled inhibitor
Description: PARP1 levels in a limited selection of PDAC cell lines were determined using Western blot and confirmed by immunofluorescence microscopy. […] Uptake was reported as a percentage of the total amount added, per mg of total protein recovered from the isolated cells, determined by BCA assay. Specificity of uptake was determined by blocking olaparib binding sites using an excess of cold, unlabeled olaparib, or other PARP inhibitors (rucaparib, talazoparib).
Cell uptake of ^18F-olaparib in Panc-1, MiaPaCa-2 and Capan-1 cells was determined as previously described (Cornelissen, B., Hu, M., McLarty, K., Costantini, D. & Reilly, R. M.
Cellular penetration and nuclear importation properties of 111In-labeled and 123I-labeled HIV-1 tat peptide immunoconjugates in BT-474 human breast cancer cells. Nucl Med Biol 34, 37-46, 2007; Thurber, G. M., Reiner, T., Yang, K. S., Kohler, R. H. & Weissleder, R. Effect of small-molecule modification on single-cell pharmacokinetics of PARP inhibitors. Molecular cancer therapeutics 13, 986-995, 2014; Reiner, T., et al. Imaging therapeutic PARP inhibition in vivo through bioorthogonally developed companion imaging agents. Neoplasia 14, 169-177, 2012). Aliquots of Panc-1, MiaPaca-2, and Capan-1 cells (1.5×10^5 cells/well) were seeded in 24-well plates in warm cell culture medium (500 μL) and the cells were allowed to adhere overnight. Cells were irradiated (10 Gy; dose rate 0.8 Gy/min) or sham-irradiated and then returned to an incubator (37° C., 5% CO2) for 2 h. […] In the blocking groups, non-radioactive olaparib, talazoparib, or rucaparib were also added in increasing concentrations (10 pM-10 μM. After 30 or 60 minutes, the cell culture medium was removed and combined with two washes (500 μL) of cell culture medium. The remaining monolayer of cells was then lysed with 0.1 M sodium hydroxide for 20 minutes at room temperature. The amount of radioactivity contained within the cell culture medium and the cell lysate fractions was measured using a gamma counter. Protein levels from parallel plates were quantified using a Pierce BCA protein assay kit (Thermo Scientific) according to the manufacturer's recommendations and bovine serum albumin was used as the protein standard. Cell uptake levels of [^18F]-olaparib were normalised to percent of the total added radioactivity per milligram protein. […] IC50 values were calculated using GraphPad Prism software (GraphPad Software, San Diego, CA, USA). […]
Aliquots of Panc-1, MiaPaca-2, and Capan-1 cells (7.5×10^4 cells/well) were seeded in 24-well plates in warm cell culture medium (500 μL). […] The amount of radioactivity contained within the cell culture medium and the cell lysate fractions was measured using a gamma counter. […]

[1] = female mice, intravenous bolus 20 mg/kg; cited from earlier work
[2] = system: U87MG and U251MG xenografts; assay: 18F-olaparib biodistribution in U87MG and U251MG tumour xenograft mouse models; assay type: in vivo, Balb/c nude mice; details: 20 μg cold olaparib prior to 1 μg ^18F-olaparib, tail vein
Description: U87MG and U251MG xenografts were generated in Balb/c nude mice. The xenograft models were administered various doses (0.5, 1.0, 4.0, and 8.0 μg) of ^18F-olaparib by tail vein injection. At 60-120 min post-injection, mice were sacrificed and organs were collected for biodistribution; see FIGS. 27(a) and (b), and FIG. 28(a). […] We predicted that the uptake for the U251MG xenografts would be greater, but in vivo there is no significant difference between the % ID/g for the U251MG or U87MG xenograft tumours.
A 20-fold excess of cold olaparib was injected via tail vein 60 m prior to 1 μg of ^18F-olaparib via tail vein. The mice were sacrificed at 60-120 min post-injection and organs were harvested.

Compound | blocking of ^18F-olaparib uptake in vitro (U87MG and U251MG cells) | blocking of [^18F]olaparib uptake by excess PARP inhibitor (PANC-1 cells) | previously reported half-life [1] | blocking of ^18F-olaparib tumour uptake in vivo [2]
O=C(c1cc(Cc2n[nH]c(=O)c3ccccc23)ccc1F)N1CCN(C(=O)C2CC2)CC1 [Compound 1, 4-(3-(4-(cyclopropanecabonyl)piperazine-1-carbnonyl)-4-fluorobenzyl)phthalazin-1(2H)-one] | ~70% | could be blocked | 58 min | ~75%
CNCc1ccc(-c2[nH]c3cc(F)cc4c3c2CCNC4=O)cc1 [rucaparib] |  | could be blocked |  | 
Cn1ncnc1[C@H]1c2n[nH]c(=O)c3cc(F)cc(c23)N[C@@H]1c1ccc(F)cc1 [talazoparib] |  | could be blocked |  | 
